# Data: ChEMBL document CHEMBL4411291, “Synthesis and anti-tumor activity of imidazopyrazines as TAK1 inhibitors” (Eur J Med Chem, 2019)
# pIC50: −log10 of the molar value.
# Legend:
# [1] = target: T1, Mitogen-activated protein kinase kinase kinase 7 (Homo sapiens) (UniProt O43318); experiment: Inhibition of TAK1 (unknown origin) at 1 uM by LanthaScreen Eu kinase binding assay relative to control
# T1 sequence (whole entry): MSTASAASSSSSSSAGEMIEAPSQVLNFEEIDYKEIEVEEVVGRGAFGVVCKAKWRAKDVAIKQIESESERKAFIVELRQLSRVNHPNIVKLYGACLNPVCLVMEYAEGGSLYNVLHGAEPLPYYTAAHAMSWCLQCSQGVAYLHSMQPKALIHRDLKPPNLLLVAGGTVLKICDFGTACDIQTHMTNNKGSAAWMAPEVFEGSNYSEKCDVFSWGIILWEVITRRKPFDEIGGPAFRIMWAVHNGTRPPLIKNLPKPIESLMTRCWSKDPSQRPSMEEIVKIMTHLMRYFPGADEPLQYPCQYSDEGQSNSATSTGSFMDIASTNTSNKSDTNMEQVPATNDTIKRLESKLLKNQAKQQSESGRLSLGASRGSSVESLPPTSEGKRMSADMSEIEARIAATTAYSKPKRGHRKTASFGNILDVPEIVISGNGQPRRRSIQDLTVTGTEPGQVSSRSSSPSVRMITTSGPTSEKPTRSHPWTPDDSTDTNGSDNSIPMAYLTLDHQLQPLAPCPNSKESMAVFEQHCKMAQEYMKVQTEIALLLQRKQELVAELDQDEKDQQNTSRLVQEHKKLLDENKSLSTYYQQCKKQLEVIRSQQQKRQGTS
# [2] = target: T1, Mitogen-activated protein kinase kinase kinase 7 (Homo sapiens); experiment: Inhibition of TAK1 (unknown origin) at 0.1 uM by LanthaScreen Eu kinase binding assay relative to control
# [3] = target: TAK1/TAB1 (Homo sapiens, UniProt O43318); experiment: Inhibition of N-terminal His-tagged human TAK1 (1 to 303 amino acids)/human TAB1 (437 to 504 amino acids) expressed in baculovirus expression system using fluorescence-labeled substrate by off-chip mobility shift assay
# Sequence of TAK1/TAB1 (Q15750 whole entry, one chain of several, the tested form may be a part): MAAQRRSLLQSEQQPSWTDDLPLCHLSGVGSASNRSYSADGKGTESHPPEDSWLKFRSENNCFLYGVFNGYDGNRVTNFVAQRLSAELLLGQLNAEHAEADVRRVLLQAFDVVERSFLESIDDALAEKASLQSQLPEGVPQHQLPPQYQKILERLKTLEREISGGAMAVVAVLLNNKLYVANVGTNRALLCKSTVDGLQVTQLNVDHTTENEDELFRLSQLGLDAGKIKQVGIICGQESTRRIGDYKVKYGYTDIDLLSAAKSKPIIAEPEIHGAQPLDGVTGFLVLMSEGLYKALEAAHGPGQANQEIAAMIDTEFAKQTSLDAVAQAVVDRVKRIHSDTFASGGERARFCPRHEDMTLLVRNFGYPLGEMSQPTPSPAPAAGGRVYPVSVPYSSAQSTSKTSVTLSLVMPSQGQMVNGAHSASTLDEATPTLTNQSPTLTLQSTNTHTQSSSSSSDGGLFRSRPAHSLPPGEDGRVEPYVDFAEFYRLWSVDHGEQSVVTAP
# [4] = system: SW-620; experiment: Growth inhibition of human SW620 cells after 96 hrs by SRB assay; format: functional, cell-based; conditions: SW-620, 96 h
# [5] = Stability in human liver microsomes assessed as parent compound remaining after 60 mins in presence of NADPH by HPLC analysis; format: ADME, Microsome; conditions: read-out: Stability
# [6] = Stability in mouse liver microsomes assessed as parent compound remaining after 60 mins in presence of NADPH by HPLC analysis; format: ADME, Microsome; conditions: read-out: Stability
# [7] = Stability in human plasma assessed as parent compound remaining after 6 hrs by LC-MS/MS analysis; format: ADME, cell-free; conditions: read-out: Stability
# [8] = Stability in mouse plasma assessed as parent compound remaining after 6 hrs by LC-MS/MS analysis; format: ADME, cell-free; conditions: read-out: Stability
# [9] = AUC (0 to 7 hrs) in ICR mouse at 10 mg/kg, po administered as single dose or 3 mg/kg, iv by LC-MS/MS analysis; format: ADME, organism-based; conditions: in vivo
# [10] = Cmax in ICR mouse at 10 mg/kg, po administered as single dose or 3 mg/kg, iv by LC-MS/MS analysis; format: ADME, organism-based; conditions: in vivo
# [11] = Half life in ICR mouse at 10 mg/kg, po administered as single dose or 3 mg/kg, iv by LC-MS/MS analysis; format: ADME, organism-based; conditions: in vivo
# [12] = Oral bioavailability in ICR mouse at 10 mg/kg administered as single dose by LC-MS/MS analysis; format: ADME, organism-based; conditions: in vivo
SMILES,inhibition [1] [%],inhibition [2] [%],also measured
Cc1cc(NC(=O)Nc2cc(C(C)(C)C)nn2-c2ccc(C#N)cc2)ccc1-c1cnc(NC2CC2)c2nccn12,84,19,–
Cc1cc(NC(=O)Nc2cc(C(C)(C)C)nn2-c2cccc(C#N)c2)ccc1-c1cnc(NC2CC2)c2nccn12,97,49,pIC50 [3]: 7.39; pIC50 [4]: 6.77; remaining at 1 h [5]: 33%; remaining at 1 h [6]: 37%; remaining at 6 h [7]: 100%; remaining at 6 h [8]: 88%; AUC(0-t) [9]: 360 ng·h/mL; Cmax [10]: 231 ng/mL; half-life [11]: 2.4 h; bioavailability [12]: 3.1%
Cc1cc(NC(=O)Nc2cc(C(C)(C)C)nn2-c2cccc(F)c2)ccc1-c1cnc(NC2CC2)c2nccn12,94,34,–
Cc1cc(C(=O)Nc2cc(C(C)(C)C)nn2-c2ccccc2)ccc1Oc1cnc(NC2CC2)c2nccn12,3,4,–
Cc1cc(NC(=O)Nc2cc(C(C)(C)C)nn2-c2cccc(C#N)c2)ccc1Oc1cnc(NC2CC2)c2nccn12,76,0,–
Cc1cc(NC(=O)Nc2cc(C(C)(C)C)nn2-c2ccc(F)cc2)ccc1-c1cnc(NC2CC2)c2nccn12,69,0,–

# The next lines start with results.
inhibition [1] [%],inhibition [2] [%],SMILES,also measured
84,16,Cc1cc(NC(=O)Nc2cc(C(C)(C)C)nn2-c2cccc(Cl)c2)ccc1-c1cnc(NC2CC2)c2nccn12,–
92,36,Cc1cc(NC(=O)Nc2cc(C(C)(C)C)nn2-c2cccc(C#N)c2)ccc1-c1cnc(NC2CC2)c2ncnn12,–
74,18,Cc1cc(NC(=O)Nc2cc(C(C)(C)C)nn2-c2cccc(Cl)c2)ccc1-c1cnc(NC2CC2)c2ncnn12,–
